# Measured values reported in the Kinase Knowledgebase extract (Sharma et al. 2016).
# Target: CDK2 (UniProt P24941)
# Assay: Enzyme Assay
row,SMILES,IC50 [µM]
1,CC(=O)c1ccc(-c2ccc(CC(=O)Nc3n[nH]c4c3CCC4)cc2)cc1,6.5
2,O=C(Cc1cccs1)Nc1n[nH]c2c1CCC2,4
3,O=C(Cc1ccc(-c2cccc(F)c2)cc1)Nc1n[nH]c2c1CCC2,7
4,COc1cccc(-c2ccc(CC(=O)Nc3n[nH]c4c3CCC4)cc2)c1,< 10
5,O=C(Nc1n[nH]c2c1CCC2)c1ccccc1,7
6,COc1ccc(OC)c(CC(=O)Nc2n[nH]c3c2CCC3)c1,5.2
7,O=C(Nc1n[nH]c2c1CCC2)c1cccc(F)c1,5
8,COc1cccc(CC(=O)Nc2n[nH]c3c2CCC3)c1,7.6
9,COc1ccc(C(=O)Nc2n[nH]c3c2CCC3)cc1,6
10,O=C(Cc1ccc(-c2ccc(F)cc2)cc1)Nc1n[nH]c2c1CCC2,< 10
11,O=C(Nc1n[nH]c2c1CCC2)C1CC1,4
12,O=C(Cc1cccc(-c2ccccc2)c1)Nc1n[nH]c2c1CCC2,8
13,COc1ccc(-c2ccc(CC(=O)Nc3n[nH]c4c3CCC4)cc2)cc1,< 10
14,O=C(Cc1ccc(-c2ccccc2F)cc1)Nc1n[nH]c2c1CCC2,7
15,O=C(Nc1n[nH]c2c1CCC2)c1cccs1,4
16,COc1ccccc1-c1ccc(CC(=O)Nc2n[nH]c3c2CCC3)cc1,< 10
17,CC(=O)c1cccc(-c2ccc(CC(=O)Nc3n[nH]c4c3CCC4)cc2)c1,4.3

# Other lines, results leading:
row,IC50 [µM],SMILES
1,4,O=C(Nc1n[nH]c2c1CCC2)c1ccc2c(c1)OCO2
2,1,O=C(Cc1ccc(-c2ccccc2)cc1)Nc1n[nH]c2c1CCC2
3,1.1,O=C(Cc1ccc(Br)cc1)Nc1n[nH]c2c1CCC2
4,1,CC(C)(C)c1ccc(CC(=O)Nc2n[nH]c3c2CCC3)cc1
5,0.7,COc1ccc(CC(=O)Nc2n[nH]c3c2CCC3)cc1
6,1.5,O=C(Cc1cccc(Br)c1)Nc1n[nH]c2c1CCC2
7,1.5,O=C(Cc1ccccc1)Nc1n[nH]c2c1CCC2
8,0.8,O=C(Cc1ccc(I)cc1)Nc1n[nH]c2c1CCC2
9,1.5,CSc1ccc(CC(=O)Nc2n[nH]c3c2CCC3)cc1
10,3,O=C(Cc1ccc(F)cc1)Nc1n[nH]c2c1CCC2
11,3,O=C(CCc1ccccc1)Nc1n[nH]c2c1CCC2
